Here are results for nine compounds from ChEMBL document CHEMBL1275353, “4-Phenylcoumarins from Mesua elegans with acetylcholinesterase inhibitory activity” (Bioorg Med Chem, 2010).

The target in the experiment is Acetylcholinesterase (Electrophorus electricus, UniProt O42275).
Chain of Acetylcholinesterase (O42275 whole entry): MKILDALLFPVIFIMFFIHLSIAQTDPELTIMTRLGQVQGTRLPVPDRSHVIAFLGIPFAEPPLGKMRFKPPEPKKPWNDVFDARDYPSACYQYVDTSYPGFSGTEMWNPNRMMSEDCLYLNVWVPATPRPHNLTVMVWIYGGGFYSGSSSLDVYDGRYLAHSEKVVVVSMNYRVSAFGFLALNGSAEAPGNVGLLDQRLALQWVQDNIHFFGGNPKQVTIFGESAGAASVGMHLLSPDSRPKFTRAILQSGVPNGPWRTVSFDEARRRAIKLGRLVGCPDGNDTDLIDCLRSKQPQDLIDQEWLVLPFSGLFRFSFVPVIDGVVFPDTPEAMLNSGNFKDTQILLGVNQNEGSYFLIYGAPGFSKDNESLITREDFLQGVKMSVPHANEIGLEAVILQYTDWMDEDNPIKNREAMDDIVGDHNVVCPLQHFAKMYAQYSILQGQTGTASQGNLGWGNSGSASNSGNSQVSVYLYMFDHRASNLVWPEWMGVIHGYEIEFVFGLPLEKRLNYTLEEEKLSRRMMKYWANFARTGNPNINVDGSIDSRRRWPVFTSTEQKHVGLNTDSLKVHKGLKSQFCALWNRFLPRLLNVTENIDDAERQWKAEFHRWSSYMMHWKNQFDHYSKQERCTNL

Description: Inhibition of Electrophorus electricus AChE after 120 secs by Ellman spectroscopic method

A word on the IC50: it is the concentration that inhibits the measured activity by half. With `CC(C)=CCC/C(C)=C/Cc1c(O)c(C(=O)CC(C)C)c2oc(=O)cc(-c3ccccc3)c2c1O`, the IC50 is more than 20 µM.

The compound `CCC(C)C(=O)c1c(O)c(C/C=C(\C)CCC=C(C)C)c(O)c2c(-c3ccccc3)cc(=O)oc12` (centres undefined) yielded an IC50 of 3.06 µM. In turn, `CC(C)CC(=O)c1c(O)c2c(c3c(-c4ccccc4)cc(=O)oc13)OC(C(C)(C)O)C2` (centres undefined) showed an IC50 of more than 20 µM. The same measure for `CC(C)CC(=O)c1c(O)c2c(c3c(-c4ccccc4)cc(=O)oc13)OC(C)(C)C=C2` [ISOMAMMEIGIN]: more than 20 µM; for `CC(C)=CCc1c(O)c(C(=O)CC(C)C)c2oc(=O)cc(-c3ccccc3)c2c1O` [ISOMAMMEISIN]: more than 20 µM; for `CC(C)=CCCC1(C)C=Cc2c(O)c(C(=O)CC(C)C)c3oc(=O)cc(-c4ccccc4)c3c2O1` (centres undefined) [MESUAGENIN A]: 1.06 µM. In turn, `CCC(C)C(=O)c1c(O)c2c(c3c(-c4ccccc4)cc(=O)oc13)OC(C)(CCC=C(C)C)C=C2` (centres undefined) [MESUAGENIN B] displayed an IC50 of 0.7 µM. The same measure for `CC(C)=CCC/C(C)=C/Cc1c(O)c(C(=O)C(C)C)c2oc(=O)cc(-c3ccccc3)c2c1O` [MESUAGENIN C]: more than 20 µM; for `CC(C)CCC(C)(O)C1(C)Cc2c(O)c(C(=O)CC(C)C)c3oc(=O)cc(-c4ccccc4)c3c2O1` (centres undefined) [MESUAGENIN D]: 8.73 µM.
